Measured values taken from PubChem BioAssay (NCI).
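Test compounds were applied to cells in 96-well plates for 48 hours at 5 doses. TGI marks complete inhibition of growth.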

Experiments:
Assay in all cases: NCI anticancer screen, dose series, 48 h
MOLT-4 leukemia = test system: MOLT-4 leukemia
DLD-1 colon = test system: DLD-1 colon
K-562 leukemia = test system: K-562 leukemia
HL-60(TB) leukemia = test system: HL-60(TB) leukemia
SF-295 CNS = test system: SF-295 CNS
HOP-62 NSCLC = test system: HOP-62 NSCLC
TK-10 renal = test system: TK-10 renal
EKVX NSCLC = test system: EKVX NSCLC
CCRF-CEM leukemia = test system: CCRF-CEM leukemia
KM20L2 colon = test system: KM20L2 colon
HOP-92 NSCLC = test system: HOP-92 NSCLC
SK-MEL-28 melanoma = test system: SK-MEL-28 melanoma
UACC-257 melanoma = test system: UACC-257 melanoma
NCI-H522 lung = test system: NCI-H522 lung
M19-MEL melanoma = test system: M19-MEL melanoma
OVCAR-8 ovarian = test system: OVCAR-8 ovarian
OVCAR-3 ovarian = test system: OVCAR-3 ovarian
KM12 colon = test system: KM12 colon
SF-268 CNS = test system: SF-268 CNS
UO-31 renal = test system: UO-31 renal
NCI-H226 lung = test system: NCI-H226 lung
SW-620 colon = test system: SW-620 colon
UACC-62 melanoma = test system: UACC-62 melanoma
NCI-H23 lung = test system: NCI-H23 lung
U251 CNS = test system: U251 CNS
DMS 114 small cell lung = test system: DMS 114 small cell lung
HOP-18 NSCLC = test system: HOP-18 NSCLC
HCT-116 colon = test system: HCT-116 colon
SNB-19 CNS = test system: SNB-19 CNS
XF 498 CNS = test system: XF 498 CNS
CAKI-1 renal = test system: CAKI-1 renal
786-0 renal = test system: 786-0 renal
SNB-75 CNS = test system: SNB-75 CNS
OVCAR-4 ovarian = test system: OVCAR-4 ovarian
HT29 colon = test system: HT29 colon
NCI-H460 lung = test system: NCI-H460 lung
SK-MEL-5 melanoma = test system: SK-MEL-5 melanoma
SN12C renal = test system: SN12C renal
COLO 205 colon = test system: COLO 205 colon
SF-539 CNS = test system: SF-539 CNS
SK-OV-3 ovarian = test system: SK-OV-3 ovarian
LXFL 529 NSCLC = test system: LXFL 529 NSCLC
M14 melanoma = test system: M14 melanoma
SK-MEL-2 melanoma = test system: SK-MEL-2 melanoma
IGROV1 ovarian = test system: IGROV1 ovarian
A549 NSCLC = test system: A549 NSCLC
HCT-15 colon = test system: HCT-15 colon
ACHN renal = test system: ACHN renal
RXF 393 renal = test system: RXF 393 renal
MALME-3M melanoma = test system: MALME-3M melanoma
RPMI-8226 leukemia = test system: RPMI-8226 leukemia
SR leukemia = test system: SR leukemia
A498 renal = test system: A498 renal
HCC-2998 colon = test system: HCC-2998 colon
LOX IMVI melanoma = test system: LOX IMVI melanoma
DMS 273 small cell lung = test system: DMS 273 small cell lung
OVCAR-5 ovarian = test system: OVCAR-5 ovarian
SNB-78 CNS = test system: SNB-78 CNS
DU-145 prostate = test system: DU-145 prostate
PC-3 prostate = test system: PC-3 prostate
HS 578T breast = test system: HS 578T breast
MDA-MB-435 = test system: MDA-MB-435
BT-549 breast = test system: BT-549 breast
MDA-MB-231 breast = test system: MDA-MB-231 breast
T-47D breast = test system: T-47D breast
MDA-N = test system: MDA-N
NCI/ADR-RES ovarian = test system: NCI/ADR-RES ovarian
MCF7 breast = test system: MCF7 breast

Structure (SMILES): C/C(=C\c1ccccc1)C(=O)c1c(C)cc(C)cc1C
- TGI (MOLT-4 leukemia): > 100 µM
- TGI (DLD-1 colon): > 100 µM
- TGI (K-562 leukemia): > 100 µM
- TGI (HL-60(TB) leukemia): > 100 µM
- TGI (SF-295 CNS): > 100 µM
- TGI (HOP-62 NSCLC): > 100 µM
- TGI (TK-10 renal): > 100 µM
- TGI (EKVX NSCLC): > 100 µM
- TGI (CCRF-CEM leukemia): > 100 µM
- TGI (KM20L2 colon): > 100 µM
- TGI (HOP-92 NSCLC): > 100 µM
- TGI (SK-MEL-28 melanoma): > 100 µM
- TGI (UACC-257 melanoma): > 100 µM
- TGI (NCI-H522 lung): > 100 µM
- TGI (M19-MEL melanoma): > 100 µM
- TGI (OVCAR-8 ovarian): > 100 µM
- TGI (OVCAR-3 ovarian): > 100 µM
- TGI (KM12 colon): > 100 µM
- TGI (SF-268 CNS): > 100 µM
- TGI (UO-31 renal): > 100 µM
- TGI (NCI-H226 lung): > 100 µM
- TGI (SW-620 colon): > 100 µM
- TGI (UACC-62 melanoma): > 100 µM
- TGI (NCI-H23 lung): > 100 µM
- TGI (U251 CNS): > 100 µM
- TGI (DMS 114 small cell lung): > 100 µM
- TGI (HOP-18 NSCLC): > 100 µM
- TGI (HCT-116 colon): > 100 µM
- TGI (SNB-19 CNS): > 100 µM
- TGI (XF 498 CNS): > 100 µM
- TGI (CAKI-1 renal): > 100 µM
- TGI (786-0 renal): > 100 µM
- TGI (SNB-75 CNS): > 100 µM
- TGI (OVCAR-4 ovarian): > 100 µM
- TGI (HT29 colon): > 100 µM
- TGI (NCI-H460 lung): > 100 µM
- TGI (SK-MEL-5 melanoma): > 100 µM
- TGI (SN12C renal): > 100 µM
- TGI (COLO 205 colon): > 100 µM
- TGI (SF-539 CNS): > 100 µM
- TGI (SK-OV-3 ovarian): > 100 µM
- TGI (LXFL 529 NSCLC): > 100 µM
- TGI (M14 melanoma): > 100 µM
- TGI (SK-MEL-2 melanoma): > 100 µM
- TGI (IGROV1 ovarian): > 100 µM
- TGI (A549 NSCLC): > 100 µM
- TGI (HCT-15 colon): > 100 µM
- TGI (ACHN renal): > 100 µM
- TGI (RXF 393 renal): > 100 µM
- TGI (MALME-3M melanoma): > 100 µM
- TGI (RPMI-8226 leukemia): > 100 µM
- TGI (SR leukemia): > 100 µM

Structure (SMILES): Cc1cc(O)c2c(c1)OC1(C)CCC3C(C)(C)CCCC34COC2C14 (stereo not given)
- TGI (MOLT-4 leukemia): 27.4 µM
- TGI (DLD-1 colon): 36.8 µM
- TGI (K-562 leukemia): 46.3 µM
- TGI (HL-60(TB) leukemia): 63.7 µM
- TGI (SF-295 CNS): 28.3 µM
- TGI (HOP-62 NSCLC): 28.5 µM
- TGI (A498 renal): 26 µM
- TGI (EKVX NSCLC): 24.8 µM
- TGI (CCRF-CEM leukemia): 42.7 µM
- TGI (KM20L2 colon): 33.3 µM
- TGI (UACC-257 melanoma): 28.8 µM
- TGI (NCI-H522 lung): 34.6 µM
- TGI (OVCAR-8 ovarian): 30.9 µM
- TGI (OVCAR-3 ovarian): 26.8 µM
- TGI (KM12 colon): 35.3 µM
- TGI (SF-268 CNS): 30.7 µM
- TGI (UO-31 renal): 33.2 µM
- TGI (NCI-H226 lung): 31 µM
- TGI (SW-620 colon): 30 µM
- TGI (UACC-62 melanoma): 34.8 µM
- TGI (NCI-H23 lung): 35.9 µM
- TGI (HCC-2998 colon): 28.1 µM
- TGI (LOX IMVI melanoma): 27.3 µM
- TGI (DMS 114 small cell lung): 27.1 µM
- TGI (HCT-116 colon): 27.3 µM
- TGI (SNB-19 CNS): 32.7 µM
- TGI (CAKI-1 renal): 32.9 µM
- TGI (786-0 renal): 30.7 µM
- TGI (OVCAR-4 ovarian): 33.5 µM
- TGI (NCI-H460 lung): 30.6 µM
- TGI (SK-MEL-5 melanoma): 27.5 µM
- TGI (SN12C renal): 30.8 µM
- TGI (COLO 205 colon): 29.9 µM
- TGI (SF-539 CNS): 23.8 µM
- TGI (LXFL 529 NSCLC): 28.2 µM
- TGI (M14 melanoma): 29.1 µM
- TGI (IGROV1 ovarian): 38.7 µM
- TGI (A549 NSCLC): 28.6 µM
- TGI (DMS 273 small cell lung): 27.1 µM
- TGI (ACHN renal): 25.8 µM
- TGI (MALME-3M melanoma): 26.3 µM
- TGI (OVCAR-5 ovarian): 29.5 µM

Structure (SMILES): CCSc1c2ccccc2nc2c(OC)ccc(OC)c12
- TGI (MOLT-4 leukemia): 73 µM
- TGI (HL-60(TB) leukemia): 52.9 µM
- TGI (SF-295 CNS): 66.2 µM
- TGI (HOP-62 NSCLC): 97.2 µM
- TGI (TK-10 renal): 85 µM
- TGI (A498 renal): 81.7 µM
- TGI (EKVX NSCLC): > 100 µM
- TGI (CCRF-CEM leukemia): > 100 µM
- TGI (SNB-78 CNS): 56.7 µM
- TGI (HOP-92 NSCLC): 56.5 µM
- TGI (SK-MEL-28 melanoma): 40 µM
- TGI (UACC-257 melanoma): 42.8 µM
- TGI (NCI-H522 lung): > 100 µM
- TGI (M19-MEL melanoma): 37.1 µM
- TGI (OVCAR-8 ovarian): 44.9 µM
- TGI (KM12 colon): 63.5 µM
- TGI (SF-268 CNS): 55.6 µM
- TGI (UO-31 renal): 59.8 µM
- TGI (NCI-H226 lung): 55.7 µM
- TGI (UACC-62 melanoma): 37.9 µM
- TGI (U251 CNS): 44.9 µM
- TGI (HCT-116 colon): 37.9 µM
- TGI (SNB-19 CNS): 72.4 µM
- TGI (HT29 colon): 63.4 µM
- TGI (NCI-H460 lung): 41.7 µM
- TGI (SK-OV-3 ovarian): 63.2 µM
- TGI (M14 melanoma): 95.8 µM
- TGI (IGROV1 ovarian): 63.4 µM
- TGI (A549 NSCLC): > 100 µM
- TGI (DMS 273 small cell lung): 47.9 µM
- TGI (RXF 393 renal): 33.2 µM
- TGI (SR leukemia): 62.5 µM
- TGI (OVCAR-5 ovarian): 97.1 µM

Structure (SMILES): C/C(CC(O)(C(F)(F)F)C(F)(F)F)=N\O
- TGI (DU-145 prostate): > 10 µM
- TGI (MOLT-4 leukemia): > 10 µM
- TGI (K-562 leukemia): > 10 µM
- TGI (HL-60(TB) leukemia): > 10 µM
- TGI (SF-295 CNS): > 10 µM
- TGI (PC-3 prostate): > 10 µM
- TGI (HOP-62 NSCLC): > 10 µM
- TGI (TK-10 renal): > 10 µM
- TGI (A498 renal): > 10 µM
- TGI (EKVX NSCLC): > 10 µM
- TGI (CCRF-CEM leukemia): > 10 µM
- TGI (HOP-92 NSCLC): > 10 µM
- TGI (HS 578T breast): > 10 µM
- TGI (SK-MEL-28 melanoma): > 10 µM
- TGI (UACC-257 melanoma): > 10 µM
- TGI (NCI-H522 lung): > 10 µM
- TGI (OVCAR-8 ovarian): > 10 µM
- TGI (MDA-MB-435): > 10 µM
- TGI (OVCAR-3 ovarian): > 10 µM
- TGI (KM12 colon): > 10 µM
- TGI (SF-268 CNS): > 10 µM
- TGI (NCI-H226 lung): > 10 µM
- TGI (SW-620 colon): > 10 µM
- TGI (UACC-62 melanoma): > 10 µM
- TGI (NCI-H23 lung): > 10 µM
- TGI (HCC-2998 colon): > 10 µM
- TGI (BT-549 breast): > 10 µM
- TGI (LOX IMVI melanoma): > 10 µM
- TGI (U251 CNS): > 10 µM
- TGI (MDA-MB-231 breast): > 10 µM
- TGI (HCT-116 colon): > 10 µM
- TGI (SNB-19 CNS): > 10 µM
- TGI (CAKI-1 renal): > 10 µM
- TGI (786-0 renal): > 10 µM
- TGI (SNB-75 CNS): > 10 µM
- TGI (T-47D breast): > 10 µM
- TGI (OVCAR-4 ovarian): > 10 µM
- TGI (HT29 colon): > 10 µM
- TGI (NCI-H460 lung): > 10 µM
- TGI (SK-MEL-5 melanoma): > 10 µM
- TGI (SN12C renal): > 10 µM
- TGI (COLO 205 colon): > 10 µM
- TGI (SF-539 CNS): > 10 µM
- TGI (SK-OV-3 ovarian): > 10 µM
- TGI (MDA-N): > 10 µM
- TGI (M14 melanoma): > 10 µM
- TGI (SK-MEL-2 melanoma): > 10 µM
- TGI (IGROV1 ovarian): > 10 µM
- TGI (NCI/ADR-RES ovarian): > 10 µM
- TGI (A549 NSCLC): > 10 µM
- TGI (HCT-15 colon): > 10 µM
- TGI (MCF7 breast): > 10 µM
- TGI (ACHN renal): > 10 µM
- TGI (RXF 393 renal): > 10 µM
- TGI (MALME-3M melanoma): > 10 µM
- TGI (RPMI-8226 leukemia): > 10 µM
- TGI (SR leukemia): > 10 µM
- TGI (OVCAR-5 ovarian): > 10 µM
